Reference: paper PMC8912030, “Secondary Metabolites with Anti-Inflammatory from the Roots of Cimicifuga taiwanensis” (Molecules, 2022)
Like-named read-outs stand apart in the source and are kept apart here.

Legend:
[1] = system: RAW 264.7 macrophages; assay: Cell viability (MTT assay); format: cell-based, mouse
Method: (§1) The cytotoxic effects were tested using an MTT experiment.
(§2) The mouse macrophage cell line (RAW 264.7) was obtained from the Bioresource Collection and Research Center (BCRC 60001) and cultured at 37 °C in Dulbecco’s Modified Eagle’s Medium (DMEM) supplemented with 10% fetal bovine serum (Gibco), 4.5 g/L glucose, 4 mM glutamine, penicillin (100 units/mL), and streptomycin (100 μg/mL) in a humidified atmosphere in a 5% CO2 incubator. The cells were treated with 10, 25, and 50 μM of natural products in the presence of 1 μg/mL lipopolysaccharide (LPS, Sigma-Aldrich) for 20 h. The concentration of NO in the culture supernatants was determined to be nitrite, a major stable product of NO, by a Griess reagent assay, and cell viabilities were determined using the MTT assay as described previously.

[2] = Cell viability (MTT assay); format: cell-based, mouse; settings: mouse
Method: as §1, §2

[3] = system: LPS-activated NO production in RAW 264.7 macrophages; assay: Inhibition of LPS-induced NO production (Griess reagent assay, nitrite); format: cell-based, mouse; settings: for IC50: Mus musculus, read-out: IC50 NO; for fold NO inhibitory activity compared with quercetin: ratio to quercetin IC50 34.58 μM; for NO inhibitory activity (in words): LPS-induced NO production in RAW 264.7
Method: The anti-inflammatory activities of the 5 isolates (2–6) in sufficient amounts were evaluated by examining their inhibitory effects on lipopolysaccharide (LPS)-induced inducible nitric oxide synthase (iNOS)-dependent NO 6 production in the murine macrophage cell line RAW 264.7 (Table 4). From the results of our anti-inflammatory tests, the following conclusions could be drawn.
as §2

[4] = RAW264.7, RAW 264.7, 1 μg/mL LPS, 20 h, mean ± SEM (n = 4) of 3 independent experiments

Row | Structure (SMILES) | Cell Viability (% Control) ([1]; 50 µM) | viability at 20 h, 50 µM [2] | IC50 [3, 4] | fold NO inhibitory activity compared with quercetin [3] | melting point | NO inhibitory activity (in words) [3] | NO inhibitory activity (in words) ([3]; listed as Cimicitaiwanin E) | IC50 ([3]; RAW264.7, 20 h) | Cell Viability (% Control) ([1]; RAW 264.7, MTT, mean ± SEM, concentration not given in table (text: 50 μM))
1 | CC(=O)OC(C)(C)C1OC23OC1CC(C)C2C1(C)C(O)CC2=C(CCC4C5(CCC(O5)C4(C)C)C2)C1(C)C3O (stereo not drawn) [Compound 2, 25-O-acetyl-12β-hydroxyacerinol] | 69.14 ± 2.87 % Control | < 80% | 8.37 ± 3.25 µM | about four |  |  |  |  | 
2 | CC(=O)OC(C)(C)C1OC23OC1CC(C)C2C1(C)CC(=O)C2=C(C(O)CC4C5(CCC(O5)C4(C)C)C2)C1(C)C3O (stereo not drawn) [Compound 3, 25-O-acetyl-7β-hydroxy-11-oxoacerinol] | 95.53 ± 3.39 % Control | 95% | 6.54 ± 0.87 µM | five | 103 to 105 °C | showed inhibitory activities |  |  | 
3 | CC(=O)OC(C)(C)C1OC23OC1CC(C)C2C1(C)CCC2=C(CCC4C(=CCC(OC5OCC(O)C(O)C5O)C4(C)C)C2)C1(C)C3O (stereo not drawn) [Compound 4, cimicitaiwanin D] | 91.12 ± 4.22 % Control | 91% | 10.1 ± 0.47 µM | three |  | showed inhibitory activities |  |  | 
4 | CC1CC2OC3(OC2C(C)(C)O)C1C1(C)CCC24CC25C=CC(=O)C(C)(C)C5CC=C4C1(C)C3O (stereo not drawn) [Compound 5, cimicitaiwanin E] | 88.54 ± 1.50 % Control | 89% |  |  |  | moderate | showed inhibitory activities | 24.6 ± 4.97 µM | 
5 | CC(C=CC1C(C)CC(O)CC1(C)C)=CC(=O)O [Compound 6, rel-(2E,4E)-5-((3S,5R,6R,)-4-hydroxy-2,2,6-trimethylcyclohexyl)-3-methylpenta-2,4-dienoic acid] | 86.84 ± 2.95 % Control | 87% | 15.4 ± 0.85 µM | two |  | showed inhibitory activities |  |  | 
6 | O=c1c(O)c(-c2ccc(O)c(O)c2)oc2cc(O)cc(O)c12 [Quercetin, quercetin, reference compound] |  |  | 34.6 ± 2.34 µM |  |  |  |  |  | 95.56 ± 1.91 % Control
